{"source": "PubChem BioAssay AID330", "about": "(DTP/NCI, 2004)", "tested_on": "P388 leukemia ip, CD2F1 mice, survival T/C", "assay": "NCI In Vivo Anticancer Drug Screen. Data for tumor model P388 Leukemia (intraperitoneal) in CD2F1 (CDF1) mice", "conditions": "endpoint: median survival time, higher = longer survival", "outline": "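Mice carrying the transplanted tumor received test compound or vehicle. Survival was recorded in each group, and the value is the treated-group measurement divided by that of the vehicle-treated control group.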", "key": {"[1]": {"conditions": "dose: 50.0 mg/kg/injection, schedule: Q01DX005 (ip), vehicle: Klucel (hydroxypropylcellulose) (HPC)"}, "[2]": {"conditions": "dose: 100.0 mg/kg/injection, schedule: Q01DX005 (ip), vehicle: Klucel (hydroxypropylcellulose) (HPC)"}, "[3]": {"conditions": "dose: 200.0 mg/kg/injection, schedule: Q01DX005 (ip), vehicle: Klucel (hydroxypropylcellulose) (HPC)"}, "[4]": {"conditions": "dose: 50.0 mg/kg/injection, schedule: Q01DX005 (ip), vehicle: saline with Tween-80"}, "[5]": {"conditions": "dose: 100.0 mg/kg/injection, schedule: Q01DX005 (ip), vehicle: saline with Tween-80"}, "[6]": {"conditions": "dose: 60.0 mg/kg/injection, schedule: Q01DX005 (ip), vehicle: saline with Tween-80"}, "[7]": {"conditions": "dose: 120.0 mg/kg/injection, schedule: Q01DX005 (ip), vehicle: saline with Tween-80"}, "[8]": {"conditions": "dose: 240.0 mg/kg/injection, schedule: Q01DX005 (ip), vehicle: saline with Tween-80"}, "[9]": {"conditions": "dose: 200.0 mg/kg/injection, schedule: Q01DX005 (ip), vehicle: saline with Tween-80"}, "[10]": {"conditions": "dose: 100.0 mg/kg/injection, schedule: Q04DX003 (ip), vehicle: saline"}}, "note": "Values joined by “and” are separate entries in the source; they are usually repeats but may differ in a detail not shown here. Equal entries are not always repeated. Inconclusive results and toxic doses are left out."}
{"compound": "COc1cc(C2c3cc(OC(C)=O)c(OC)cc3CC3C(=O)OCC32)ccc1OC(C)=O", "note": "(stereo unspecified)", "values": [{"measurement": "T/C", "setting": "[1]", "result": "95 % of control"}, {"measurement": "T/C", "setting": "[2]", "result": "93 % of control"}, {"measurement": "T/C", "setting": "[3]", "result": "90 % of control"}]}
{"compound": "CC1(C)C2CCC1(CS(=O)O)C(=O)C2.[Ag]", "note": "(stereo unspecified)", "values": [{"measurement": "T/C", "setting": "[4]", "result": "111 % of control"}, {"measurement": "T/C", "setting": "[5]", "result": "105 % of control"}]}
{"compound": "CCn1c(=O)c(Cl)c2n(CC)c3ccccc3n2c1=O", "values": [{"measurement": "T/C", "setting": "[6]", "result": "97 % of control"}, {"measurement": "T/C", "setting": "[7]", "result": "89 % of control"}, {"measurement": "T/C", "setting": "[8]", "result": "87 % of control"}]}
{"compound": "C#CC(OS(=O)(=O)C(F)(F)F)=C(C)C", "values": [{"measurement": "T/C", "setting": "[4]", "result": "99 % of control"}, {"measurement": "T/C", "setting": "[5]", "result": "100 % of control"}, {"measurement": "T/C", "setting": "[9]", "result": "100 % of control"}]}
{"compound": "NC(CCC(=O)NC(CSCNC(=O)Nc1ccc(Cl)cc1)C(=O)NCC(=O)O)C(=O)O", "note": "(stereo unspecified)", "values": [{"measurement": "T/C", "setting": "dose: 60.0 mg/kg/injection, schedule: Q01DX005 (ip), vehicle: saline", "result": "97 % of control"}, {"measurement": "T/C", "setting": "dose: 120.0 mg/kg/injection, schedule: Q01DX005 (ip), vehicle: saline", "result": "97 % of control"}]}
{"compound": "O=c1[nH]cc(I)cc1I", "values": [{"measurement": "T/C", "setting": "dose: 100.0 mg/kg/injection, schedule: Q01DX009 (ip), vehicle: saline with Tween-80", "result": "95 % of control"}, {"measurement": "T/C", "setting": "dose: 200.0 mg/kg/injection, schedule: Q01DX009 (ip), vehicle: saline with Tween-80", "result": "95 % of control"}, {"measurement": "T/C", "setting": "dose: 400.0 mg/kg/injection, schedule: Q01DX009 (ip), vehicle: saline with Tween-80", "result": "90 % of control"}]}
{"compound": "OCCN1CCC(C2CCN(CCO)CC2)CC1", "values": [{"measurement": "T/C", "setting": "dose: 50.0 mg/kg/injection, schedule: Q01DX005 (ip), vehicle: saline", "result": "96 % of control"}, {"measurement": "T/C", "setting": "dose: 100.0 mg/kg/injection, schedule: Q01DX005 (ip), vehicle: saline", "result": "97 % of control"}, {"measurement": "T/C", "setting": "dose: 200.0 mg/kg/injection, schedule: Q01DX005 (ip), vehicle: saline", "result": "98 % of control"}]}
{"compound": "OC12CCCCC1CCCS2", "note": "(stereo unspecified)", "values": [{"measurement": "T/C", "setting": "[10]", "result": "98 % of control"}, {"measurement": "T/C", "setting": "dose: 200.0 mg/kg/injection, schedule: Q04DX003 (ip), vehicle: saline", "result": "94 % of control"}, {"measurement": "T/C", "setting": "dose: 400.0 mg/kg/injection, schedule: Q04DX003 (ip), vehicle: saline", "result": "102 % of control"}]}
{"compound": "O=[N+]([O-])CC(c1ccccc1)C(c1ccccc1)[N+](=O)[O-]", "note": "(stereo unspecified)", "values": [{"measurement": "T/C", "setting": "[4]", "result": "90 % of control"}, {"measurement": "T/C", "setting": "[5]", "result": "93 % of control"}, {"measurement": "T/C", "setting": "[9]", "result": "112 % of control"}]}
{"compound": "O=C1NC(=O)C(Cc2ccc(N(CCO)CCO)cc2)(c2ccccc2)N1", "note": "(stereo unspecified)", "values": [{"measurement": "T/C", "setting": "[1]", "result": "108 % of control and 109 % of control and 116 % of control"}, {"measurement": "T/C", "setting": "[2]", "result": "111 % of control and 121 % of control"}, {"measurement": "T/C", "setting": "[3]", "result": "117 % of control and 120 % of control"}, {"measurement": "T/C", "setting": "dose: 400.0 mg/kg/injection, schedule: Q01DX005 (ip), vehicle: Klucel (hydroxypropylcellulose) (HPC)", "result": "110 % of control and 124 % of control"}]}
{"compound": "CN(C)[C@@H]1C(=O)C(C(=O)NCN(CCCl)CCCl)=C(O)[C@@]2(O)C(=O)C3=C(O)c4c(O)cccc4[C@@](C)(O)[C@H]3C[C@@H]12", "values": [{"measurement": "T/C", "setting": "dose: 33.0 mg/kg/injection, schedule: Q04DX003 (ip), vehicle: saline with Tween-80", "result": "159 % of control"}, {"measurement": "T/C", "setting": "dose: 44.0 mg/kg/injection, schedule: Q04DX003 (ip), vehicle: saline", "result": "154 % of control"}, {"measurement": "T/C", "setting": "dose: 50.0 mg/kg/injection, schedule: Q04DX003 (ip), vehicle: saline with Tween-80", "result": "158 % of control and 172 % of control"}, {"measurement": "T/C", "setting": "dose: 66.0 mg/kg/injection, schedule: Q04DX003 (ip), vehicle: saline", "result": "181 % of control"}, {"measurement": "T/C", "setting": "dose: 75.0 mg/kg/injection, schedule: Q04DX003 (ip), vehicle: saline with Tween-80", "result": "168 % of control"}, {"measurement": "T/C", "setting": "dose: 100.0 mg/kg/injection, schedule: Q04DX003 (ip), vehicle: saline with Tween-80", "result": "100 % of control"}, {"measurement": "T/C", "setting": "[10]", "result": "209 % of control"}]}
{"compound": "O=C1CC(c2ccccc2)C(=O)N1CN1CCOCC1", "note": "(stereo unspecified)", "values": [{"measurement": "T/C", "setting": "[1]", "result": "110 % of control"}, {"measurement": "T/C", "setting": "[2]", "result": "97 % of control"}, {"measurement": "T/C", "setting": "[3]", "result": "97 % of control"}]}
{"compound": "O=C1NC(=O)C2(CCCC2)c2ccncc21", "values": [{"measurement": "T/C", "setting": "dose: 6.25 mg/kg/injection, schedule: Q04DX002 (ip), vehicle: saline with Tween-80", "result": "96 % of control"}, {"measurement": "T/C", "setting": "dose: 12.5 mg/kg/injection, schedule: Q04DX002 (ip), vehicle: saline with Tween-80", "result": "96 % of control"}]}
{"compound": "Cc1cc(C)c2c(c1)CC(C)(C)C(=O)OC2=O", "values": [{"measurement": "T/C", "setting": "[6]", "result": "107 % of control"}, {"measurement": "T/C", "setting": "[7]", "result": "101 % of control"}]}
{"compound": "C=CCn1c(-c2ccccn2)n[nH]c1=S", "values": [{"measurement": "T/C", "setting": "[6]", "result": "102 % of control"}, {"measurement": "T/C", "setting": "[7]", "result": "101 % of control"}, {"measurement": "T/C", "setting": "[8]", "result": "100 % of control"}]}
